Where “and” joins values, the source holds several entries; their conditions need not be identical. Equal entries are not always repeated.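 The compound was tested at five concentrations on cells cultured in 96-well plates, with a 48-hour exposure period. GI50: concentration for 50% inhibition of growth. TGI is the concentration that stops growth completely.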
Legend:
Assay in all cases: growth of human tumour cells (NCI), 48 h
SW-620 colon = system: SW-620 colon
MOLT-4 leukemia = system: MOLT-4 leukemia
UO-31 renal = system: UO-31 renal
DLD-1 colon = system: DLD-1 colon
T-47D breast = system: T-47D breast
SK-OV-3 ovarian = system: SK-OV-3 ovarian
SNB-19 CNS = system: SNB-19 CNS
XF 498 CNS = system: XF 498 CNS
HOP-92 NSCLC = system: HOP-92 NSCLC
MCF7 breast = system: MCF7 breast
NCI-H226 lung = system: NCI-H226 lung
LXFL 529 NSCLC = system: LXFL 529 NSCLC
IGROV1 ovarian = system: IGROV1 ovarian
DU-145 prostate = system: DU-145 prostate
HCT-15 colon = system: HCT-15 colon
SNB-78 CNS = system: SNB-78 CNS
SR leukemia = system: SR leukemia
CAKI-1 renal = system: CAKI-1 renal
UACC-257 melanoma = system: UACC-257 melanoma
SK-MEL-5 melanoma = system: SK-MEL-5 melanoma
HOP-62 NSCLC = system: HOP-62 NSCLC
SK-MEL-28 melanoma = system: SK-MEL-28 melanoma
SF-539 CNS = system: SF-539 CNS
MDA-MB-231 breast = system: MDA-MB-231 breast
HS 578T breast = system: HS 578T breast
COLO 205 colon = system: COLO 205 colon
SF-268 CNS = system: SF-268 CNS
A549 NSCLC = system: A549 NSCLC
PC-3 prostate = system: PC-3 prostate
KM12 colon = system: KM12 colon
HCC-2998 colon = system: HCC-2998 colon
M14 melanoma = system: M14 melanoma
HCT-116 colon = system: HCT-116 colon
M19-MEL melanoma = system: M19-MEL melanoma
OVCAR-4 ovarian = system: OVCAR-4 ovarian
NCI/ADR-RES ovarian = system: NCI/ADR-RES ovarian
ACHN renal = system: ACHN renal
MDA-N = system: MDA-N
HT29 colon = system: HT29 colon
SNB-75 CNS = system: SNB-75 CNS
TK-10 renal = system: TK-10 renal
KM20L2 colon = system: KM20L2 colon
BT-549 breast = system: BT-549 breast
LOX IMVI melanoma = system: LOX IMVI melanoma
RXF 393 renal = system: RXF 393 renal
A498 renal = system: A498 renal
MALME-3M melanoma = system: MALME-3M melanoma
786-0 renal = system: 786-0 renal
SK-MEL-2 melanoma = system: SK-MEL-2 melanoma
HOP-18 NSCLC = system: HOP-18 NSCLC
NCI-H23 lung = system: NCI-H23 lung
OVCAR-5 ovarian = system: OVCAR-5 ovarian
OVCAR-8 ovarian = system: OVCAR-8 ovarian
U251 CNS = system: U251 CNS
MDA-MB-435 = system: MDA-MB-435
RPMI-8226 leukemia = system: RPMI-8226 leukemia
NCI-H460 lung = system: NCI-H460 lung
NCI-H522 lung = system: NCI-H522 lung
SF-295 CNS = system: SF-295 CNS
SN12C renal = system: SN12C renal
OVCAR-3 ovarian = system: OVCAR-3 ovarian
K-562 leukemia = system: K-562 leukemia
HL-60(TB) leukemia = system: HL-60(TB) leukemia
CCRF-CEM leukemia = system: CCRF-CEM leukemia
UACC-62 melanoma = system: UACC-62 melanoma
EKVX NSCLC = system: EKVX NSCLC

CCc1nc(N)nc(N)c1-c1ccc(Cl)c(N=[N+]=[N-])c1
TGI (SW-620 colon): > 100 µM | GI50 (MOLT-4 leukemia): 2.82 µM and 6.62 µM | TGI (MOLT-4 leukemia): 26.8 µM and 71.1 µM | GI50 (UO-31 renal): 5.8 µM and 14.6 µM | TGI (UO-31 renal): 88 µM and > 100 µM | TGI (DLD-1 colon): > 100 µM | TGI (T-47D breast): > 96.2 µM | TGI (SK-OV-3 ovarian): > 100 µM | GI50 (SNB-19 CNS): 5.09 µM and 19.5 µM | TGI (SNB-19 CNS): > 100 µM | TGI (XF 498 CNS): 88.1 µM | TGI (HOP-92 NSCLC): > 90.7 µM and 68.2 µM | TGI (MCF7 breast): > 76.1 µM and 56.7 µM | TGI (NCI-H226 lung): > 100 µM | TGI (LXFL 529 NSCLC): > 100 µM | GI50 (IGROV1 ovarian): 2.09 µM and 4.22 µM | TGI (IGROV1 ovarian): > 91.2 µM | TGI (DU-145 prostate): > 100 µM | GI50 (HCT-15 colon): 0.791 µM and 2.06 µM | TGI (HCT-15 colon): > 100 µM | TGI (SNB-78 CNS): > 100 µM | GI50 (SR leukemia): 1.3 µM and 2.68 µM | TGI (SR leukemia): 19.2 µM and 43.9 µM | GI50 (CAKI-1 renal): 19.3 µM and 7.29 µM | TGI (CAKI-1 renal): 99.5 µM and > 96.4 µM | GI50 (UACC-257 melanoma): 1.58 µM and 12.9 µM | TGI (UACC-257 melanoma): 40 µM and > 92.7 µM | TGI (SK-MEL-5 melanoma): 19.1 µM and 18.2 µM | TGI (HOP-62 NSCLC): > 59.8 µM and 62.8 µM | TGI (SK-MEL-28 melanoma): > 87.7 µM and 60.5 µM | TGI (SF-539 CNS): > 39.9 µM and 65.3 µM | TGI (MDA-MB-231 breast): > 67.6 µM and 46.5 µM | TGI (HS 578T breast): 93.1 µM and > 100 µM | TGI (COLO 205 colon): 23.3 µM and 26.1 µM | TGI (SF-268 CNS): > 100 µM | GI50 (A549 NSCLC): 0.58 µM and 1.68 µM | TGI (A549 NSCLC): > 100 µM | GI50 (PC-3 prostate): 12.6 µM and 2.06 µM | TGI (PC-3 prostate): > 100 µM | TGI (KM12 colon): 73.1 µM and > 100 µM | TGI (HCC-2998 colon): 23 µM and 30.8 µM | GI50 (M14 melanoma): 0.641 µM and 3.51 µM | TGI (M14 melanoma): 24.1 µM and 49 µM | TGI (HCT-116 colon): > 80.6 µM and 65.1 µM | TGI (M19-MEL melanoma): > 100 µM | TGI (OVCAR-4 ovarian): 97.7 µM and > 100 µM | TGI (NCI/ADR-RES ovarian): 63.9 µM and 99.4 µM | GI50 (ACHN renal): 2.33 µM and 4.75 µM | TGI (ACHN renal): > 100 µM | GI50 (MDA-N): 0.812 µM and 5.03 µM | TGI (MDA-N): 53.9 µM and > 84.9 µM | GI50 (HT29 colon): 1.32 µM and 3.06 µM | TGI (HT29 colon): > 85.4 µM | TGI (SNB-75 CNS): > 87.3 µM | GI50 (TK-10 renal): 8.78 µM and 29.3 µM | TGI (TK-10 renal): > 100 µM | TGI (KM20L2 colon): > 100 µM | GI50 (BT-549 breast): 6.14 µM and 15.2 µM | TGI (BT-549 breast): 48.8 µM and 77.7 µM | TGI (LOX IMVI melanoma): > 100 µM and 67.7 µM | GI50 (RXF 393 renal): 2.86 µM and 11.7 µM | TGI (RXF 393 renal): 42.3 µM and 73.6 µM | TGI (A498 renal): 60.7 µM and 72.6 µM | GI50 (MALME-3M melanoma): 14 µM and 6.3 µM | TGI (MALME-3M melanoma): 30.2 µM and 23.5 µM | TGI (786-0 renal): > 77.8 µM and 45.2 µM | TGI (SK-MEL-2 melanoma): 41.3 µM and 43.7 µM | TGI (HOP-18 NSCLC): > 100 µM | TGI (NCI-H23 lung): > 93.8 µM and 80.9 µM | TGI (OVCAR-5 ovarian): > 100 µM | GI50 (OVCAR-8 ovarian): 15.4 µM and 4.79 µM | TGI (OVCAR-8 ovarian): > 100 µM | TGI (U251 CNS): > 100 µM | TGI (MDA-MB-435): 36.7 µM and > 83.7 µM | TGI (RPMI-8226 leukemia): 39.2 µM and 52.1 µM | GI50 (NCI-H460 lung): 0.463 µM and 1.23 µM | TGI (NCI-H460 lung): > 81.7 µM | TGI (NCI-H522 lung): 42.5 µM and 29.4 µM | TGI (SF-295 CNS): > 100 µM and 82 µM | TGI (SN12C renal): > 100 µM | TGI (OVCAR-3 ovarian): 64.6 µM and 80 µM | TGI (K-562 leukemia): > 54.8 µM | GI50 (HL-60(TB) leukemia): 0.4 µM and 2.14 µM | GI50 (CCRF-CEM leukemia): 0.898 µM and 3.89 µM | TGI (CCRF-CEM leukemia): 31.9 µM and > 71.9 µM | GI50 (UACC-62 melanoma): 0.78 µM and 3.13 µM | TGI (UACC-62 melanoma): 24.8 µM and 26.8 µM | TGI (EKVX NSCLC): > 100 µM and 99.8 µM
